Entries after “also recorded” stand apart in the source; their conditions may differ.
Columns and labels:
[1] = system: human bronchial epithelial (HBE) cells; assay: Short-circuit current in primary human bronchial epithelial (HBE) cells; assay type: cell-based; conditions: for short-circuit current responses to ENaC, maximal forskolin or ATP: 10 μM, 10 min pretreatment
Method: FIGS. 16A-16E. Characterization of 6k and 12. FIG. 16A. Cellular cAMP in FRT cells following incubation for 10 min with 10 μM 6k or 12, without or with 90 nM forskolin (fsk), as well as forskolin alone (90 nM and 20 μM) and forskolin (20 μM)+IBMX (100 μM) (mean±S.E.M., n=4). FIG. 16B. Cytoplasmic calcium measured by Fluo-4 fluorescence. FRT cells were pretreated for 5 min with 10 μM 6k or 12 (or control), with 100 μM ATP added as a calcium agonist as indicated. FIG. 16C. TMEM16A activity measured in FRT cells expressing YFP showing no inhibition (left, iodide+ATP addition) or activation (right, iodide addition) by 10 μM 6k or 12. FIG. 16D. […] FIG. 16E. (left) Short circuit-current in primary cultures of human bronchial epithelial cells in response to agonists and inhibitors that target key ion transport processes: 20 μM amiloride (ami); 20 μM forskolin (fsk); 10 μM CFTRinh-172; 100 μM ATP. Experiments were done without activator or following 10-min preincubation with 10 μM 6k or 12 (right). CFTR activation by 12 after 100 nM forskolin (20 μM amil, 10 μM CFTRinh-172, 100 μM ATP). Studies in B-E are representative of 2-4 separate sets of experiments.
Short-circuit current measurement. Short-circuit current measurements were done as described. Briefly, Snapwell (Corning Costar, Corning, N.Y.) inserts containing CFTR-expressing FRT cells or human bronchial epithelial cells were mounted in Ussing chambers (Physiological Instruments, San Diego, Calif.). For FRT cells the hemichambers were filled with 5 ml of HCO3^−-buffered solution (basolateral) and half-Cl^− solution (apical), and the basolateral membrane was permeabilized with 250 μg/ml amphotericin B. Symmetrical HCO3^−-buffered solutions were used for human bronchial epithelial cells. Solutions were bubbled with 95% O2/5% CO2 and maintained at 37° C., and short-circuit current was measured on a DVC-1000 voltage clamp (World Precision Instruments Inc., Sarasota, Fla.) using Ag/AgCl electrodes and 3 M KCl agar bridges.

TMEM16A = target: T1, TMEM16A (Homo sapiens, UniProt Q5XXA6); assay: TMEM16A plate reader assay in FRT cells expressing YFP and TMEM16A; assay type: cell-based; conditions: 10 μM
T1 construct: expressed in transfected cells; host or cells: Fischer rat thyroid (FRT) cells stably co-expressing YFP-H148Q
T1 sequence (Q5XXA6 1-986): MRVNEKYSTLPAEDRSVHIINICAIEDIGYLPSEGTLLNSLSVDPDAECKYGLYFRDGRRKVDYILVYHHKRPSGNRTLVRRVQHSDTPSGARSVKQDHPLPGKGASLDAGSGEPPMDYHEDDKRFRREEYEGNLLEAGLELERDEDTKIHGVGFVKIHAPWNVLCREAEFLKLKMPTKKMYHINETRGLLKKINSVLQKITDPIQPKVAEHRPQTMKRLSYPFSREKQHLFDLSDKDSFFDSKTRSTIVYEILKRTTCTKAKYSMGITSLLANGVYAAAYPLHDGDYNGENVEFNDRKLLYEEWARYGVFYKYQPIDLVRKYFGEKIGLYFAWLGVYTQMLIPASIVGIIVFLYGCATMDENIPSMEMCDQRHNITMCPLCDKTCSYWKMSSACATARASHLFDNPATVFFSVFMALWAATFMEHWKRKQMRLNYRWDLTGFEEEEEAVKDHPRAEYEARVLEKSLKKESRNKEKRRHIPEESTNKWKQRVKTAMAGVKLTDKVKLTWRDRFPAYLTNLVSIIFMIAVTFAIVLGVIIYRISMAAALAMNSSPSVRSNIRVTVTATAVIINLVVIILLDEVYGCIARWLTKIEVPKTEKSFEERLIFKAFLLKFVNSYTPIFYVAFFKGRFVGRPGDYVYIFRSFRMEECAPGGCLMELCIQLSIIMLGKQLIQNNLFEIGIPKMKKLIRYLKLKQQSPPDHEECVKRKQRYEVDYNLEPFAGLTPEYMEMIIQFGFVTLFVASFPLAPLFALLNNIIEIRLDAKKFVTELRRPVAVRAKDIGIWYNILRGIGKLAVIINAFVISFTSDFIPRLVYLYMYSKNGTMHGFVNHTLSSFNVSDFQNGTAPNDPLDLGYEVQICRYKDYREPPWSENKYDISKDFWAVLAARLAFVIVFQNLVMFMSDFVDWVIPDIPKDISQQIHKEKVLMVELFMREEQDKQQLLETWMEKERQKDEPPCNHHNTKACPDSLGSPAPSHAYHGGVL
Method: Platereader assays of chloride channel function. CFTR activity was assayed as described. FRT cells co-expressing YFP and wildtype CFTR were washed with phosphate-buffered saline (PBS) and then incubated for 10 min with test compounds in PBS containing 125 nM forskolin. I^− influx was measured in a plate reader with initial baseline read for 2 s and then for 12 s after rapid addition of an I^−-containing solution. TMEM16A activity was assayed similarly as described using FRT cells co-expressing YFP and TMEM16A. Activity of non-TMEM16A CaCC was assayed as described in HT-29 cells expressing YFP. In each assay initial rates of I^− influx were computed as a linear measure of channel function.

[2] = Compound accumulation in systemic tissues after 14 days topical dosing; assay type: in vivo, mouse; conditions: for amount in mouse blood, brain, liver and kidney (below limit of detection): two weeks, three times per day topical 0.1 nmol
mice = assay: Ocular toxicity after chronic topical dosing (slit-lamp, lissamine green staining); assay type: in vivo; conditions: two weeks, three times per day topical
Method: (§1) To assess corneal epithelial disruption, 5 μL of lissamine green (LG) dye (1%) was applied to the ocular surface of isofluorane-anesthetized mice. Photographs of the eye were taken using a Nikon Digital camera adapted to an Olympus Zoom Stereo Microscope (Olympus, Center Valley, Pa., USA). Each corneal quadrant was scored on a 3-point scale by one blinded, trained observer, with the extent of staining in each quadrant classified as: 0, no staining; 1, sporadic (involving <25% of the total surface) staining; grade 2, diffuse punctate staining (25-75%); and grade 3, coalesced punctate staining (≥75%). The total grade is reported as the sum of scores from all four quadrants, ranging from 0 to 12.
as §1, with “Lissamine green staining. To” for “To”

Compound	short-circuit current responses to ENaC, maximal forskolin or ATP [1]	effect on calcium-activated chloride channels in TMEM16A-expressing FRT cells (TMEM16A)	amount in mouse blood, brain, liver and kidney (below limit of detection) [2] [fmol]	LG staining after chronic dosing (mice)	ocular toxicity (slit-lamp: conjunctival hyperemia, anterior chamber inflammation, lens clarity) (mice)	systemic absorption, in words ([2]; topical)	CFTR activation in HBE cells after forskolin ([1]; 0.1 μM, following 100 nM forskolin)	CFTR activation in HBE cells without forskolin ([1]; absence of basal CFTR phosphorylation)
CCN(CC)c1nc(Nc2ccc3ncsc3c2)nc(OC(C(F)(F)F)C(F)(F)F)n1 [6k, N′-(1,3-Benzothiazol-6-yl)-N,N-diethyl-6-[(1,1,1,3,3,3-hexafluoropropan-2-yl)oxy]-1,3,5-triazine-2,4-diamine]	did not alter short-circuit current responses	no inhibition; also recorded: neither inhibited nor activated	–	–	–	–	–	–
Nc1ccc([N+](=O)[O-])cc1-c1nc2ccccc2n(Cc2ccccc2)c1=O [CFTRact-J027, 3-(2-amino-5-nitrophenyl)-1-benzylquinoxalin-2(1H)-one]	–	–	< 700	no corneal or conjunctival epithelial disruption	no signs of ocular toxicity	–	–	–
CCN(CC)c1nc(Nc2ccccc2)nc(OC(C(F)(F)F)C(F)(F)F)n1 [CFTRact-K089, N,N-Diethyl-6-[(1,1,1,3,3,3-hexafluoropropan-2-yl)oxy]-N′-phenyl-1,3,5-triazine-2,4-diamine]	–	–	< 10	no corneal or conjunctival epithelial disruption	no signs of ocular toxicity	without detectable systemic absorption	–	–
CNc1nc(Nc2ccccc2)nc(OCC(F)(F)C(F)F)n1 [compound 12, N-methyl-N′-phenyl-6-(2,2,3,3-tetrafluoropropoxy)-1,3,5-triazine-2,4-diamine]	did not alter short-circuit current responses	no inhibition; also recorded: neither inhibited nor activated	–	–	–	–	fully activated CFTR	did not activate CFTR
